This is an account of results in patent publication US4495189A, “Condensed pyrimidines” (priority 1975, dated 1985).

Data set [1] in a line: Acute toxicity on rats (i.v.). The settings on record: rat, in vivo, iv. An excerpt: (§1) Acute toxicity, analgesic and platelet aggregation inhibiting activity of "CH-105" was compared with the same activities of RIMAZOLIUM. RIMAZOLIUM is a commercial product, which is a quaternary salt chemically, but exerts its activity as a tautomeric enamine [Arzneimittel Forschung 21, 717-719 and 719-727 (1971)].

The test system of a further data set is mice. As to the kind of experiment: Analgesic activity on "Writing" test, on mice. The class given is in vivo. Particulars: Mus musculus.
Text: as §1

Data set [2] concerns rats. The data set can be described thus: Analgesic activity on rats, hot plate, per os. In kind it is in vivo. Particulars: Rattus norvegicus, po.
Text: as §1

The test system of a further data set is platelet aggregation. As to the kind of experiment: Platelet aggregation inhibiting activity, comparison of CH-105 and Rimazolium. The settings on record: same conditions for CH-105 and Rimazolium.
Text: as §1

Data set [3] concerns PGE1. As to the kind of experiment: Vessel wall permeability inhibition, prostaglandin E1. In kind it is in vivo. An excerpt:
(§2) Thus, it is appropriate to test the effectiveness of a representative compound of the invention in the inflammation response caused by prostaglandin E1 and E2, particularly from the point of view of the vessel wall permeability, which plays an important role in the inflammation.

Data set [4] relates to PGE2. As to the kind of experiment: Vessel wall permeability inhibition, prostaglandin E2. The class given is in vivo.
Text: as §2

Data set [5] is described as follows: Antiphlogistic activity, method of Northove. Particulars: 100 mg/kg. In kind it is in vivo. An excerpt:
Favorable antiphlogistic properties were found in tests carried out by the method of Northove.

In data set [6] the test system is PGE2. The data set can be described thus: Oedema inhibition, inflammation caused by prostaglandin E2. The class given is in vivo.
Text: as §2

Data set [7] has as its system PGE1. The data set can be described thus: Oedema inhibition, inflammation caused by prostaglandin E1. In kind it is in vivo.
Text: as §2

Another data set relates to rat paw oedema. The data set can be described thus: Antiphlogistic activity, rat paw oedema method (Domenju). In kind it is in vivo. As to the method:
The antiphlogistic activity was tested by the rat paw oedema method (Domenju, R: Ann. Univ. Saraviensis 1,317, 1953). The compound were compared with the currently used therapeutic agents Phenylbutazone, aspirin, Indomethacin, Mebron and Amidazophenum.

A short description of data set [8]: in vivo. The settings on record: rat, po.
The nature of data set [9]: in vivo. Particulars: mouse, po.
For data set [10], the system named is collagen induced thrombocyte aggregation. As to the kind of experiment: Inhibition of collagen induced thrombocyte aggregation (in vitro). In kind it is cell-based. An excerpt:
In Table 6 the inhibition of collagen induced thrombocyte aggregation under in vitro conditions is shown.

Data set [11] is described as follows: Pharmacological and toxicological tests (summary).
The test system of data set [12] is rats. The data set can be described thus: Chronic toxicity test, ulcerogenicity in rats. In kind it is in vivo. The settings on record: one-month old rats, 50 mg/kg, chronic toxicity tests.

Where two headings read alike, the source gives them in different places.

By ED50 is commonly meant the dose that gives a 50% effect, or the effect in half of the subjects. A lower ED50 goes with greater potency. On to `COc1ccc2c(c1)c(CC(=O)O)c(C)n2C(=O)c1ccc(Cl)cc1` [Indomethacin], for which, where the note is “modified writhing test”, the ED50 came to 2.4 mg/kg and the “Therapeutic Index” value was 12.

As a reminder, the LD50 is the dose at which mortality reaches 50%. Regarding `CCOC(=O)c1c[n+](C)c2n(c1=O)C(C)CCC2` (centres unmarked) [Rimazolium, 1,6-dimethyl-3-carbethoxy-4-oxo-6,7,8,9-tetrahydrohomopyrimidazol-methylsulfate], the 50% lethal dose (LD50) in [1] is 610 µmol/kg. The ED50 in the data set on mice stood at 1050 µmol/kg; in the data set on rats [2] it was 620 µmol/kg. In the data set with platelet aggregation, the “platelet aggregation inhibiting activity” value is listed as “practically ineffective”.

Turning to `CCCCC1C(=O)N(c2ccccc2)N(c2ccccc2)C1=O` [Phenylbutazone], the “Vessel wall permeability inhibition %, PGE1” value in the data set on PGE1 [3] (100 mg/kg) turned out to be 10%; with PGE1 [3] (200 mg/kg) it was 20%. Further, the “Vessel wall permeability inhibition %, PGE2” value was determined as 5% in the data set on PGE2 [4] (100 mg/kg) and 20% in the data set with PGE2 [4] (200 mg/kg). Further, the “Antiphlogistic activity (%), 1 hour” value in [5] was 13%. For the same compound, the “Antiphlogistic activity (%), 2 hours” value in data set [5] was found to be 20%. Besides, in [5], the “Antiphlogistic activity (%), 24 hours” value was 0%. Also, the ED50 (modified writhing test) is recorded as 63 mg/kg. Also, the figures for the “Oedema inhibition %, PGE2” value in the data set with PGE2 [6] (100 mg/kg) and in the data set with PGE2 [6] (200 mg/kg) were 10% and 28%, respectively. Moreover, the “Oedema inhibition %, PGE1” value was 35% in the data set on PGE1 [7] (100 mg/kg) and 15% in the data set on PGE1 [7] (200 mg/kg). The “Oedema inhibiting effect in %, 1 hour after the administration of the substance” value (shortened to “Oedema inhibiting effect in %, 1 hour”) in the data set with rat paw oedema (100 mg/kg) was found to be 2%; in the data set with rat paw oedema (200 mg/kg), 11%. Also, the entries for the “Oedema inhibiting effect in %, 2 hours after the administration of the substance” value (“Oedema inhibiting effect in %, 2 hours” below) in the data set on rat paw oedema (100 mg/kg) and with rat paw oedema (200 mg/kg) were 2% and 10%, respectively. For the same compound, the “Oedema inhibiting effect in %, 24 hours after the administration of the substance” value (shortened to “Oedema inhibiting effect in %, 24 hours”) in the data set on rat paw oedema (200 mg/kg) is 3%.

As to `CC(=O)Oc1ccccc1C(=O)O` [Aspirin], the results for the “Vessel wall permeability inhibition %, PGE1” value with PGE1 [3] (200 mg/kg) and with PGE1 [3] (500 mg/kg) were 30% and 42%, respectively. Also, the “Vessel wall permeability inhibition %, PGE2” value with PGE2 [4] (200 mg/kg) was determined as 25%; in the data set on PGE2 [4] (500 mg/kg) it was 50%. Further, the LD50 in the data set “in vivo [8]” is 1600 mg/kg; in the data set “in vivo [9]”, 1100 mg/kg. Moreover, the “Oedema inhibition %, PGE2” value in the data set with PGE2 [6] (200 mg/kg) turned out to be 20%; in the data set with PGE2 [6] (500 mg/kg), 54%. Further, the “Oedema inhibition %, PGE1” value was 41% in the data set on PGE1 [7] (200 mg/kg) and 45% in the data set with PGE1 [7] (500 mg/kg).

`CC1CCC=C2N(C)C=C(C(=O)Nc3ccccc3)C(=O)N21` (centres unmarked) [Example 6, 1,6-dimethyl-3-(N-phenylcarbamoyl)-4-oxo-1,6,7,8-tetrahydro-4H-pyrido(1,2a)pyrimidine]: the “Inhibition of collagen induced thrombocyte aggregation in %” value (“Inhibition … in %” for short) in [10] (1 × 10^-3 mole) is listed as 56%; in [10] (1 × 10^-4 mole), 29%. Besides, the “Oedema inhibiting effect in %, 2 hours” value in the data set with rat paw oedema (500 mg/kg) stood at 53%.

Consider `CC1CCC=C2N(C)C=C(C(=O)NC(C)(C)C)C(=O)N21` (centres unmarked) [Example 5, 1,6-dimethyl-3-(N-tert-butyl-carbamoyl)-4-oxo-1,6,7,8-tetrahydro-4H-pyrido(1,2a)pyrimidine], for which the “Inhibition … in %” value in data set [10] (1 × 10^-3 mole) came to 99%; in data set [10] (1 × 10^-4 mole), 85%. The “Oedema inhibiting effect in %, 2 hours” value with rat paw oedema (125 mg/kg) amounted to 50%.

As to `CNC(=O)C1=CN(C)C2=CCCC(C)N2C1=O` (centres unmarked) [Example 7, 1,6-dimethyl-3-(N-methyl-carbamoyl)-4-oxo-1,6,7,8-tetrahydro-4H-pyrido(1,2a)pyrimidine], the entries for the “Inhibition … in %” value in [10] (1 × 10^-3 mole) and in data set [10] (1 × 10^-4 mole) were 100% and 95%, respectively. In addition, in the data set on rat paw oedema (500 mg/kg), the “Oedema inhibiting effect in %, 2 hours” value is given as 60%.

Consider `COc1cc(C)nc(-n2nc(C)cc2OC)n1` [Mebron], for which, in data set [5], the “Antiphlogistic activity (%), 1 hour” value came to 23%; the “Antiphlogistic activity (%), 2 hours” value was 23%; the “Antiphlogistic activity (%), 24 hours” value worked out at 0%. Further, the “Therapeutic Index” value (in vivo) is on record as 4.3. The ED50 (modified writhing test) is on record as 380 mg/kg. In addition, in the data set with rat paw oedema (100 mg/kg), the “Oedema inhibiting effect in %, 1 hour” value is recorded as 8% and the “Oedema inhibiting effect in %, 2 hours” value turned out to be 22%. Also, in the data set with rat paw oedema (300 mg/kg), the “Oedema inhibiting effect in %, 1 hour” value amounted to 25%; the “Oedema inhibiting effect in %, 2 hours” value is reported as 25%; the “Oedema inhibiting effect in %, 24 hours” value is 3%.

As for `CC1CCC=C2N(C)C=C(C(=O)NCCc3ccccc3)C(=O)N21` (centres unmarked) [Example 11, 1,6-dimethyl-3-[N-(2-phenyl-ethyl)-carbamoyl]-4-oxo-1,6,7,8-tetrahydro-4H-pyrido(1,2a)pyrimidine], the “Inhibition … in %” value in data set [10] (1 × 10^-3 mole) was found to be 96%; in [10] (1 × 10^-4 mole) it was 92%. Moreover, the “Oedema inhibiting effect in %, 2 hours” value with rat paw oedema (125 mg/kg) was 38%.

As to `CC1CCC=C2N(C)C=C(C(=O)NCCC(c3ccccc3)c3ccccc3)C(=O)N21` (centres unmarked) [Example 9, 1,6-dimethyl-3-[N-(3,3-diphenyl-propyl)-carbamoyl]-4-oxo-1,6,7,8-tetrahydro-4H-pyrido(1,2a)pyrimidine], the “Inhibition … in %” value is 70% in data set [10] (1 × 10^-3 mole) and 60% in data set [10] (1 × 10^-4 mole).

For the compound `CC1CCC=C2N(C)C=C(C(N)=O)C(=O)N21` (centres unmarked) [CH-105, 1,6-dimethyl-3-carbamoyl-4-oxo-1,6,7,8-tetrahydro-4H-pyrido[1,2-a]pyrimidine], the figures for the “Inhibition … in %” value in data set [10] (1 × 10^-3 mole) and in [10] (1 × 10^-4 mole) were 100% and 90%, respectively. The LD50 in [1] stood at 960 µmol/kg; in the data set “in vivo [8]”, 750 mg/kg; in “in vivo [9]”, 975 mg/kg. Besides, the “Vessel wall permeability inhibition %, PGE1” value with PGE1 [3] (200 mg/kg) and in the data set with PGE1 [3] (500 mg/kg) was 40% each time. The “Vessel wall permeability inhibition %, PGE2” value in the data set with PGE2 [4] (200 mg/kg) was 35%; in the data set on PGE2 [4] (500 mg/kg), 50%. Further, the “Antiphlogistic activity (%), 1 hour” value in data set [5] was 40%. Further, the “Antiphlogistic activity (%), 2 hours” value in [5] was 55%. Further, the “Antiphlogistic activity (%), 24 hours” value in data set [5] is 30%. This compound also came in with an ED50 (modified writhing test) of 70 mg/kg, an ED50 in the data set with mice of 210 µmol/kg and an ED50 in the data set with rats [2] of 410 µmol/kg. Moreover, the “Therapeutic Index” value (modified writhing test) amounted to 14. Also, the “antiphlogistic activity, analgesic activity and therapeutic index (in words)” value in data set [11] is “significant antiphlogistic activity, analgesic activity and have a favorable therapeutic index”. The “Oedema inhibition %, PGE2” value with PGE2 [6] (200 mg/kg) turned out to be 31%; in the data set on PGE2 [6] (500 mg/kg), 45%. In the data set on rats [12], the ulcerogenicity result is “not ulcerogenic”. Moreover, the figures for the “Oedema inhibition %, PGE1” value in the data set with PGE1 [7] (200 mg/kg) and in the data set with PGE1 [7] (500 mg/kg) were 30% and 42%, respectively. The “activity as an oedema inhibitor or a vessel wall permeability reducing agent” value with PGE1 [7] (data of Table 2, PGE1 and PGE2, compared with aspirin) was “activity of the same range as the known active prostaglandinantagonist, aspirin”. Further, the “platelet aggregation inhibiting activity” value in the data set on platelet aggregation was “excellent platelet aggregation inhibiting activity”. Further, the figures for the “Oedema inhibiting effect in %, 1 hour” value in the data set with rat paw oedema (100 mg/kg) and in the data set on rat paw oedema (300 mg/kg) were 25% and 45%, respectively. Further, the results for the “Oedema inhibiting effect in %, 2 hours” value in the data set with rat paw oedema (100 mg/kg) and in the data set with rat paw oedema (300 mg/kg) were 34% and 52%, respectively. The “Oedema inhibiting effect in %, 24 hours” value in the data set with rat paw oedema (300 mg/kg) turned out to be 8%.
